Laboratory results published in patent US20250228820A1, “METHODS FOR PREVENTING OR SLOWING THE PROGRESSION OF COGNITIVE DECLINE OR IMPAIRMENT IN SUBJECTS DISPLAYING NORMAL COGNITIVE PERFORMANCE” (AGENEBIO, INC., priority 2022, published 2025).
Values joined by “and” are separate entries in the source; they are usually repeats but may differ in a detail not shown here. Equal values may be shown once.

Assays:
[1] = cited from earlier work
[2] = Levetiracetam level in blood after treatment in the LEV-HFC trial; type: in vivo, human; conditions: after two-week treatment with levetiracetam 220 mg extended release daily
Description: (§1) A phase II, randomized, double-blind, placebo-controlled crossover clinical trial of 26 CN subjects (ranging in age from 55 to 75 years) to assess the potential effect of levetiracetam on hippocampal functional connectivity (a risk marker for cognitive decline and cognitive impairment and progression to AD) was conducted. 35 patients were recruited and assessed for eligibility and the 26 eligible subjects were separated into Group A or Group B treatment groups. Group A subjects received an oral placebo tablet daily for two weeks followed by a four-week washout period; then, the subjects received an oral levetiracetam tablet daily for two weeks (i.e., two-week placebo treatment, four-week washout period, and two-week levetiracetam treatment). Group B subjects received treatment using the reverse sequence (i.e., two-week levetiracetam treatment, four-week washout period, and two-week placebo treatment). The tablet was characterized by 220 mg levetiracetam in extended release form, i.e. Tablet D (Table 2) above.
A total of 25 participants (15 women with a mean [SD] age of 65.9 [3.8] years and 10 men with a mean [SD] age of 66.7 [5.5] years) were enrolled, randomized (12 participants to group A and 13 participants to group B), and completed the study. […]

[3] = tested on: hippocampal functional connectivity; test: Phase II placebo-controlled crossover trial: hippocampal functional connectivity by resting-state fMRI in cognitively normal subjects; type: in vivo, human
Description: as §1
For each scanning session, imaging was carried out on a 3T GE MR750 whole-body scanner (GE Healthcare, Waukesha WI) with a body transmit and a 32-channel head receive coil (Nova Medical, Wilmington MA). Imaging acquisition included T1- and T2-weighted high resolution, anatomical images (TR=2521.27 ms, TE=3.596 ms, Voxel resolution: 0.5×0.5×0.8 mm3, FOV: 25.6 cm, Flip angle: 8°). […]
Total Functional connectivity indices (TFCI) were obtained based on the traditional region of interest (ROI)-based method (Chen et al, 2011) in which individual cerebrums were automatically parcellated into 90 regions, per the Automated Anatomical Labeling (AAL) toolbox (3), and the FCI was calculated as the summation of Pearson cross-correlation coefficients between the seed region and all other regions in the cerebrum. […] Second, functional connectivity between each ROI and the other brain regions was calculated using the Pearson cross-correlation analysis. […]

## CC[C@@H](C(N)=O)N1CCCC1=O [Levetiracetam, (2S)-2-(2-oxopyrrolidin-1-yl) butanamide]
[1]; expected in elderly due to decreased renal function
  Plasma half-life in elderly: 9 to 10 h
[1]; following oral administration
  Time of peak plasma concentrations: about 1 hour
[1]; in vivo
  Plasma half-life: approximately 7±1 hour
[1]; multiple twice-daily dosing
  Time to steady state: 2 days
[1]; oral
  Absorption after oral administration: rapidly and almost completely absorbed
  Effect of food on bioavailability: not affected by food
[2]; average of 25 subjects
  LEV [μg] in blood, AVG: 4.3 µg
[2]; individual subjects, listed as LEV
  LEV [μg] in blood: 3 μg and 4.5 μg and 4.8 μg and 6.1 μg and 2.9 μg and 4.1 μg (2×) and 5.1 μg and 4.4 μg (2×) and 6.3 μg and 4.9 μg and 4.2 μg and 3.1 μg and 2.8 μg and 3.8 μg (2×) and 5.8 μg and 5 μg and 3.2 μg and 3.4 μg and 4 μg and 4.7 μg and 2 μg and 8.2 μg
[3]; 220 mg extended release tablet (Tablet D) daily for two weeks, 25 CN subjects, paired t-test, t=−2.8044, p<0.0098, FIG. 6
  Functional connectivity of the hippocampus network, levetiracetam compared with placebo: significantly decreased
[3]; individual subjects, first two-week period, levetiracetam 220 mg extended release daily (numbers without *)
  Period I FC (hippocampal functional connectivity): 0.209 and 0.602 and 0.148 (2×) and 0.241 and 0.138 and 0.099 and 0.136 and 0.504 and 0.253 and 0.367 and 0.173 and 0.303
[3]; individual subjects, second two-week period after four-week washout, levetiracetam 220 mg extended release daily (numbers without *)
  Period II FC (hippocampal functional connectivity): 0.264 and 0.238 and 0.366 and 0.013 and 0.352 and 0.31 and 0.048 and 0.177 (2×) and 0.17 and 0.106 and 0.28
